How the values were obtained:
SOD1 mRNA = SOD1 mRNA in primary human pancreatic islets under 25 mM glucose (RT-PCR); assay type: cell-based; conditions: human pancreatic islets (500 IEQ), 2.5 uM, 48 h
Protocol: (§1) FIGS. 12A-12B. […] Human pancreatic islets (500 IEQ) were cultured with PIM(R) (Prodo Labs) medium under 25 mM glucose with 2.5 uM of the indicated compounds for 48 h. Total RNA was collected. RT-PCR was performed in triplicate and data shown are the mean±SEM. Statistical analysis was performed using one-way ANOVA: *p<0.0001. […] Human pancreatic islets (500 IEQ) were cultured with PIM(R) (Prodo Labs) under 25 mM glucose with 2.5 uM of the indicated compounds for 48 h. Total RNA was collected. RT-PCR was performed in triplicate and data shown are the mean+SEM. Statistical analysis was performed using one-way ANOVA: *p<0.0001.
(§2) Testing lead compounds in human pancreatic islets. To further explore the effects of the lead compounds as possible therapies in diabetes, we conducted translational studies in primary human pancreatic islets (obtained from the City of Hope islet isolation center).
(§3) RNA extraction and quantitative RT-PCR. RNA was extracted using the Direct-zol™ RNA MiniPrep Plus (Zymo Research). […] Diluted cDNA was quantified using real-time PCR performed with Power SYBR Green qPCR MasterMix (Applied Biosystem) and 7500 real-time PCR system (Applied Biosystems). […]

TXNIP mRNA [1] = test: TXNIP mRNA expression in THP1 cells under 25 mM glucose (RT-PCR); assay type: cell-based, human; conditions: for TXNIP mRNA expression: concentration range
Protocol: FIGS. 2A-2B. FIG. 2A: C30 and C38 inhibited TXNIP mRNA expression in THP1 cells. THP1 cells were cultured under 25 mM glucose with the indicated concentrations of compounds for 72 hours. Cells were then collected for total RNA preparation. RT-PCR was performed, and data shown are the mean±SEM from triplicates. Statistical analysis was performed using one-way ANOVA, *p<0.0001. FIG. 2B: C30 and C38 inhibited TNF-α mRNA expression in THP1 cells. THP1 cells were cultured under 25 mM glucose with various concentrations of compounds as indicated for 72 hours and collected for total RNA preparation. RT-PCR was performed, and data shown are the mean±SEM from triplicates. Statistical analysis was performed using one-way ANOVA: *<0.02; **<0.0001.
FIG. 6. C38 analogues effects on TXNIP mRNA expression in THP1 cells. THP1 cells were cultured under 25 mM glucose with 2.5 uM of compounds for 72 h. Total RNA was collected. RT-PCR was performed in triplicate and data shown are the mean±SEM. Statistical analysis was performed using one-way ANOVA: *p<0.0001.
FIG. 7. C38 and analogue E2 effects on TXNIP mRNA levels in THP cells. THP1 cells were cultured under 25 mM glucose with several concentration of C38 and E2 as indicated for 72 hours. Total RNA was prepared. RT-PCR was performed in triplicate and data shown are the mean±SEM. Statistical analysis was performed for each column vs. without compound control using one-way ANOVA: *p<0.0001.
C30 and C38 inhibited TXNIP mRNA expression in THP1 cells.
Discovery of lead compound analogues. A search of chemical libraries was performed in the interest of identifying possible lead compound analogues. Analogues to C38 were identified. To determine the properties of the analogues, we treated THP1 cells with the E batch compounds for three days, prepared RNA and measured TXNIP mRNA levels.
RNA extraction and quantitative RT-PCR. RNA was extracted using the Direct-zol™ RNA MiniPrep Plus (Zymo Research). Reverse transcription of RNA samples into cDNA was performed using the GeneAmp RNA PCR Kit (Applied Biosystems), dNTP (from Roche Applied Science), Rnase inhibitor, MULV Reverse Transcriptase and Random hexamers reagent (all from Invitrogen). Diluted cDNA was quantified using real-time PCR performed with Power SYBR Green qPCR MasterMix (Applied Biosystem) and 7500 real-time PCR system (Applied Biosystems). The HPRT1 gene was used as an internal control.

TXNIP mRNA [2] = test: TXNIP mRNA in CD14+ monocytes from type 2 diabetic donors (RT-qPCR); assay type: cell-based, human; conditions: CD14+ monocytes of T2D donors, 5 uM, 45 hours, ex vivo
Protocol: FIG. 20. Several lead compounds suppress TXNIP mRNA in T2D monocytes. CD14^+ monocytes were isolated from T2D patient peripheral blood mononuclear cells (PBMCs) and cultured in RPMI 1640 medium with 5 uM of C30 or C38 for 45 hours. Total RNA was collected. RT-PCR was performed in triplicates and data shown are the mean±SEM. Statistical analysis was performed using one-way ANOVA: *p<0.0001.
Anti-inflammatory (protective) effects of lead compounds in monocytes isolated from peripheral blood obtained from type 2 diabetic subjects. In accordance with an approved IRB protocol and our published methods, we isolated CD14+ monocytes from the peripheral blood of two donors with documented type 2 diabetes (T2D). These monocytes were cultured in vitro with vehicle, 5 uM C30 or C38, and levels of human TXNIP transcript assessed by RT-qPCR.

TXNIP mRNA [3] = test: TXNIP mRNA in primary human pancreatic islets under 25 mM glucose (RT-PCR); assay type: cell-based; conditions: human pancreatic islets (500 IEQ), 2.5 uM, 48 h
Protocol: as §1, §2, §3

TXNIP mRNA [4] = test: TXNIP expression in murine kidneys after oral dosing (RT-PCR); assay type: in vivo, C57BL/6 mice; conditions: 90 mg/kg oral gavage daily for five days, 96 hr after last dose
Protocol: FIG. 17. Compounds C30 and C38 reduce TXNIP expression in murine kidneys. Twelve male C57BL/6 mice were divided into three groups (vehicle, C30 and C38, 4/group). They received 90 mg/kg dose of compounds daily for five consecutive days. Compounds were given through oral gavage and mice were humanely euthanized 96 hr after the last drug administration. Kidneys were collected for total RNA preparation. RT-PCR was performed in triplicate and data shown are the mean±SEM. Statistical analysis was performed using one-way ANOVA: *p<0.05.
The effects of compounds C30 and C38 at single high dose of 90 mg/kg. Twelve male mice were divided into three groups: 1) Control group (4 mice), 2) compound C30 (4 mice) and 3) compound C38 (4 mice). By oral gavage, animals were given 90 mg/kg of agent daily for 5 consecutive days (vehicle: 30% Solutol in saline). Mice were weighed every day during the treatment period. They were humanely euthanized 96 hours after the last dose. Tissues including the pancreas, liver and kidneys were collected (snap frozen in liquid nitrogen) for RNA extraction. […] Those given compound C30 lost ˜5% of body weight (FIG. 15).
Expression of TXNIP in vivo in treated mice.

Row | SMILES | SOD1 mRNA levels (SOD1 mRNA) | concentration at which inhibition of TXNIP mRNA is still effective (TXNIP mRNA [1]; 72 hours) [µM] | TXNIP mRNA expression (TXNIP mRNA [1]; 72 hours) | expression of TXNIP (TXNIP mRNA [2]) | TXNIP mRNA (TXNIP mRNA [3]) | RNA expression level of TXNIP in kidneys (TXNIP mRNA [4]) | TXNIP mRNA expression (C38 analogues screen) (TXNIP mRNA [1]; 2.5 uM compound, 72 h)
1 | COc1cc(N2CC[C@@H](c3ccc4ccccc4c3)[C@H](O)C2)nc(N)n1 [Compound C30] | does not alter SOD1 mRNA levels | 0.15 | inhibit TXNIP expression in a dose-dependent manner | can inhibit the expression of TXNIP | target TXNIP mRNA | reduced | –
2 | c1ccc(CCNc2ncnc3c2oc2ccccc23)cc1 [Compound C38] | does not alter SOD1 mRNA levels | – | inhibit TXNIP expression in a dose-dependent manner | can inhibit the expression of TXNIP | target TXNIP mRNA | reduced | strongly inhibited TXNIP mRNA expression
